According to patent publication US20060106102A1, “Napththalene derivatives which inhibit the cytokine or biological activity of microphage migration inhibitory factor (mif)” (priority 2002, published 2006):
Read-outs that look alike come from different tables or passages of the source.

What was measured:
[1] = tested on: ex vivo splenic T cell proliferation; test: ex vivo antigen-specific splenic T cell proliferation after in vivo treatment; conditions: [mBSA] 10 ug/mL; cells from compound-treated versus vehicle-treated mice
From the text: In vivo administration of such a compound might be expected to exert effects on T cell responsiveness even after the T cells have been removed from exposure to the compound, that is, if T cells were studied ex vivo after in vivo treatment with the MIF antagonist compound. To measure ex vivo antigen-specific T cell activation, spleens were removed from mice with murine antigen induced arthritis, induced as above with mBSA, at day 28 after first immunisation and a single cell suspension prepared in DMEM containing 5% FCS and 0.05% 2-mercaptoethanol. 1×10^5 cells /200 μl were cultured in triplicate in the presence or absence of mBSA (0.1, 1.0, 10 μg /ml) in 96-well plates for 48 hours (37° C., 5% CO2) The T cell proliferation response was determined by measuring ^3H-thymidine incorporation during the final 18 hr. The cells were harvested and radioactivity incorporation into the DNA was measured with a Wallac 1409 liquid scintillation counter. The means of each triplicate culture were calculated. Each experiment comprised at least three individual animals and the results presented represent the mean±SEM of groups of animals in each experiment. The percentage inhibition of T cell proliferation was calculated using the result of the ^3H-thymidine incorporation of cells from compound-treated animals divided by the ^3H-thymidine incorporation of cells from vehicle-treated animals.

[2] = tested on: recombinant human macrophage migration inhibitory factor (MIF)-induced proliferation of S112 human dermal fibroblasts; test: MIF-induced proliferation of S112 human dermal fibroblasts, 3H-thymidine incorporation; type: cell-based
Experimental: The activity of each compound was studied in a bioassay utilising MIF-induced proliferation of human dermal fibroblasts. S112 human dermal fibroblasts were propagated in RPMI/10% foetal calf serum (FCS). Prior to experimentation, cells were seeded at 10^5 cells/ml in RPMI/0.1% BSA for 18 hours. At time point zero, culture medium was replaced with RPMI/10% FCS and treatments administered. Cells were treated with recombinant human macrophage migration inhibitory factor (MIF) 50 ng/ml (1.353×10^−9 M) and/or the compound at a 1 or 1000 molar ratio to the concentration of MIF. In some experiments the compound was combined with MIF at time point −30 minutes, prior to adding at time point zero. At time point 30 hours, cells were pulsed with […]. At time point 48 hours, cells were harvested using a semi-automated cell harvester. The radioactivity incorporated into DNA was determined by liquid scintillation counting, with results expressed as [^3H] thymidine incorporation. The proliferation of untreated cells was expressed as 100% and the effect of MIF and each compound expressed in relative %.
The activity of compound 5 was studied in a bioassay utilising MIF-induced proliferation of human dermal fibroblasts. S112 human dermal fibroblasts were propagated in RPMI/10% foetal calf serum (FCS). Prior to experimentation, cells were seeded at 10^5 cells/ml in RPMII/0.1% BSA for 18 hours. At time point zero, culture medium was replaced with RPMI/10% FCS and treatments administered. Cells were treated with recombinant human macrophage migration inhibitory factor (MIF) 50 ng/ml and/or compound 5 at a 1-1000 molar ratio to the concentration of MIF. At a time point 30 hours later, cells were pulsed with 1 μCi/well of ^3H-thymidine. At a time point 48 hours after commencement of the experiment, cells were harvested using a semi-automated cell harvester. The radioactivity incorporated into DNA was determined by liquid scintillation counting, with results expressed as [^3H] thymidine incorporation.

[3] = tested on: IL-1-induced COX-2 expression; test: IL-1-induced COX-2 expression in S112 human dermal fibroblasts (MIF-dependent event), flow cytometry; type: cell-based; conditions: Homo sapiens, Fibroblast; compound 1 uM; IL-1 0.1 ng/ml, 6 hours; S112 cells; read-out: % inhibition of IL-1-induced COX2 expression (Effect)
Experimental: The activity of each compound was studied in a bioassay utilising MIF-dependent activation of human dermal fibroblasts. […] IL-1-induced COX-2 expression is therefore a MIF-dependent event. […] Prior to experimentation, cells were seeded at 10^5 cells/ml in RPMI/0.1% BSA for 18 hours. […] Cells permeabilised with 0.1% saponin were sequentially labelled with a mouse anti-human COX-2 monoclonal antibody and with sheep-anti-mouse F(ab)2 fragment labelled with fluoroscein isothiocyanate. Cellular fluorescence was determined using a flow cytometer. At least 5000 events were counted for each reading, each of which was performed in duplicate, and the results expressed in mean fluorescence intensity (MFI) after subtraction of negative control-labelled cell fluorescence. The effect of each compound was determined by subtracting the IL-1+compound-treated cell MFI from the IL-1-treated cell MFI and expressed as % inhibition. In each case the % inhibition of IL-1-induced COX2 expression is shown as the mean, or mean±SEM where results are available from multiple experiments.

[4] = tested on: antigen-specific T cell activation (splenic T lymphocytes from mBSA-immunised mice); test: antigen-specific (mBSA) activation of splenic T lymphocytes in vitro, 3H-thymidine incorporation; type: cell-based, C57BL6/J mice; conditions: Mus musculus, T-cell, read-out: EC50 (T cell activation suppressed by 50% compared to vehicle-only-treated cells)
Experimental: After a further seven (7) days mice were killed and spleens collected aseptically into Hanks buffered saline solution (HBSS). A single cell suspension was prepared in Petri dishes by flushing DMEM through the organ using a 26G needle and 2 mL syringe. The resulting cell suspension was centrifuged for 5-7 minutes and supernatant discarded. Erythrocytes were lysed using a solution containing 0.579% NH4Cl, 0.000037% EDTA, and 0.1% NaHCO3 in a 37° C. water bath. Tubes were then filled with DMEM and centrifuged for 5-7 minutes. […] The specific stimulating antigen, mBSA, was then added at 10-50 μg/mL and plates incubated for 30 hours in a 37° C., 5% CO2 incubator. Tritiated^3H-thymidine was then added at a concentration of 0.5 μCi/well for a further 18 hours. Cells were harvested on a Packard cell harvester, and the harvested material added to 750 μL/tube scintillation fluid. Scintillation counts were read on a Wallac beta-emnission counter. […] Further compounds were also tested for their ability to inhibit antigen-specific T cell activation as a marker of the inhibition of the cytokine or biological activity of MIF using this assay.

Q: For `COc1cc2ccc(C(=O)O)cc2cc1OC` [Compound 4, 6,7-dimethoxy-2-naphthanoic acid], which “% inhibition of ex vivo splenic T cell proliferation” value [1] is on record?
A: 18%

Q: What about the “effect on MIF-induced proliferation of human dermal fibroblasts (FIGS. 1 and 2)” value ([2]; 1M ratio equivalent to MIF 50 ng/ml) of the same compound?
A: inhibition of MIF-induced proliferation

Q: And the inhibition at 0.013 µM ([2]; Homo sapiens, Fibroblast, concentration 0.013 μM, rhMIF 50 ng/ml, S112 cells, read-out: % inhibition of proliferation compared to vehicle plus rhMIF-treated cells)?
A: 24%

Q: What about the inhibition at 1 µM [3] of the same compound?
A: 2.7%

Q: What about the melting point of the same compound?
A: 248 to 250 °C

Q: What about the EC50 ([4]; mBSA 10 μg/ml) of the same compound?
A: 14.8 µM

Q: What about the EC50 ([4]; mBSA 50 μg/ml) of the same compound?
A: 49.5 µM
